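Protocol summary: plate cells (96-well), add compound at 5 concentrations, incubate 48 h, interpolate endpoints linearly. The concentration for 50% growth inhibition is given as GI50.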 The source made the active and inactive calls. Rule as the data show it: active = GI50 up to about 1.1 µM and inactive = higher.
How the values were obtained:
Experiment in all cases: growth of human tumour cells (NCI), 48 h
SW-620 = system: SW-620
RXF 393 = system: RXF 393
TK-10 = system: TK-10
KM12 = system: KM12
MDA-MB-435 = system: MDA-MB-435
MDA-N = system: MDA-N
M14 = system: M14
UACC-62 = system: UACC-62
SK-MEL-2 = system: SK-MEL-2
SF-295 = system: SF-295
HT-29 = system: HT-29
SF-539 = system: SF-539
NCI-H460 = system: NCI-H460
K562 = system: K562
SK-MEL-28 = system: SK-MEL-28
HOP-62 = system: HOP-62
SF-268 = system: SF-268
CAKI-1 = system: CAKI-1
SN12C = system: SN12C
Hs-578T = system: Hs-578T
Malme-3M = system: Malme-3M
MOLT-4 = system: MOLT-4
COLO 205 = system: COLO 205
SNB-19 = system: SNB-19
HCT-116 = system: HCT-116
SNB-75 = system: SNB-75
SK-OV-3 = system: SK-OV-3
A498 = system: A498
OVCAR-4 = system: OVCAR-4
SK-MEL-5 = system: SK-MEL-5
PC-3 = system: PC-3
IGROV-1 = system: IGROV-1
OVCAR-3 = system: OVCAR-3
RPMI-8226 = system: RPMI-8226
U-251 = system: U-251
A549 = system: A549
786-0 = system: 786-0
ACHN = system: ACHN
NCI/ADR-RES = system: NCI/ADR-RES
MCF7 = system: MCF7
NCI-H226 = system: NCI-H226
T47D = system: T47D
BT-549 = system: BT-549
MDA-MB-231 = system: MDA-MB-231
LOX IMVI = system: LOX IMVI
HCT-15 = system: HCT-15
NCI-H522 = system: NCI-H522
SR = system: SR
OVCAR-5 = system: OVCAR-5
HCC 2998 = system: HCC 2998
HOP-92 = system: HOP-92
UO-31 = system: UO-31
NCI-H23 = system: NCI-H23
OVCAR-8 = system: OVCAR-8
UACC-257 = system: UACC-257
DU-145 = system: DU-145
EKVX = system: EKVX

Measured: GI50

O=C(N/N=C1\C(=O)Nc2ccc(Br)cc21)/C(O)=C/C(=O)c1ccc(Cl)cc1
active: MOLT-4 0.0705 µM | SR < 0.01 µM
inactive: SW-620 40.8 µM | RXF 393 31.3 µM | TK-10 50.4 µM | KM12 > 100 µM | MDA-MB-435 39.9 µM | MDA-N 39.3 µM | M14 > 100 µM | UACC-62 44.3 µM | SK-MEL-2 18.7 µM | SF-295 54 µM | HT-29 > 100 µM | SF-539 71.3 µM | NCI-H460 > 100 µM | K562 8.77 µM | SK-MEL-28 51.6 µM | HOP-62 54.6 µM | SF-268 36.4 µM | CAKI-1 > 100 µM | SN12C 67.8 µM | Hs-578T 30.2 µM | Malme-3M > 100 µM | COLO 205 86.5 µM | SNB-19 50.4 µM | HCT-116 47.1 µM | SNB-75 43.8 µM | SK-OV-3 64.1 µM | A498 26.8 µM | OVCAR-4 > 100 µM | SK-MEL-5 57.5 µM | PC-3 77.1 µM | IGROV-1 75.9 µM | OVCAR-3 22.4 µM | RPMI-8226 19.4 µM | U-251 43.6 µM | A549 > 100 µM | 786-0 37.7 µM | ACHN > 100 µM | NCI/ADR-RES > 100 µM | MCF7 44.4 µM | NCI-H226 75.2 µM | T47D 36.6 µM | BT-549 35.5 µM | MDA-MB-231 45.5 µM | LOX IMVI 34 µM | NCI-H522 23.1 µM | OVCAR-5 97.5 µM | HCC 2998 50.5 µM | HOP-92 43.1 µM | UO-31 > 100 µM | NCI-H23 71.9 µM | OVCAR-8 89.3 µM | UACC-257 > 100 µM | DU-145 > 100 µM | EKVX 45.8 µM
64.4 µM: HCT-15
